Patent US20240002379A1, “ASYMMETRIC CONJUGATE COMPOUNDS” (Pheon Therapeutics Ltd., priority 2016, published 2024)
Entries after “also recorded” stand apart in the source; their conditions may differ. Read-outs that look alike come from different tables or passages of the source.

Legend:
[1] = tested on: three fluorescently labelled DNA sequences shown in FIG. 17; assay: FRET DNA melting, the three DNA sequences shown in FIG. 17 together; type: binding; settings: for effect on melting temperature / DNA stabilisation: different concentrations, all three sequences, vs control DNA
Text: Further FRET DNA melting studies were undertaken on a number of molecules using three fluorescently labelled sequences. The sequences (FIG. 17) were designed to provide additional evidence that the series can form inter- and intrastrand cross-links. Inosines were inserted in place of traditional DNA bases in some cases to limit the number of binding sites available for the compounds to interact with. The short duplexes used in this FRET study are relatively unstable in the duplex form with a melting temperature below 30° C. so that, in the absence of ligand, a large part of the melting occurs below the starting temperature of the experiment. […] Increasing concentrations of 13 cause a greater amount of the melting transition to appear at the higher temperature (i.e. a greater number of the DNA molecules are cross-linked). A greater effect for 5′-AIIAGAITTTI′-3′ can be observed at lower concentrations of 13.
Oligonucleotides were obtained from ATDbio (Southampton, UK) in lyophilised form. They were labelled with a fluorophore molecule (F=fluorescein) at the 5′-end and a quencher molecule (Q=dabcyl) at the 3′-end of the complementary strand. Each oligonucleotide was dissolved in distilled H2O to form stock solutions of 100 PM. Working solutions of 5 μM were prepared by diluting the stock solution with distilled H2O.
The following buffers were used: 250 mM phosphate buffer pH 7.4 (consisting of sodium dihydrogen phosphate and sodium phosphate diluted in distilled H2O) and 5 M sodium chloride buffer. A11 buffers and distilled H2O were filtered through a […] filter prior to use.
For the FRET experiments a stock solutions were prepared by dissolving compound (such as compound 13) in DMSO to give a concentration of 10 mM. From this stock solution, working solutions of the desired concentration were prepared by diluting the stock solution with distilled H2O.
The reaction mixture was comprised of 4 μL of 250 mM phosphate buffer (final concentration of 50 mM), 4 μL flourophor and 4 μL quencher molecule of the appropriate oligonucleotide for a final concentration of 0.2 PM, 4 μL 5 M sodium chloride (final concentration of 1 M NaCl), and 4 μL of distilled H2O. This mixture was heated in an Eppendorf tube at 90° C. for 1 min and slowly cooled down to room temperature. This process was carried out to anneal the single strands to double-stranded DNA. Following this, 4 μL of the ligand was added in the desired concentration and the mixture incubated overnight either at room temperature or 4° C. A control sample of DNA only was prepared by mixing 4 μL 250 mM phosphate buffer (final concentration of 50 mM) with 4 μL fluorophore-labelled and 4 μL quencher-labelled oligonucleotides (of the appropriate sequence) to give a final concentration of 0.2 PM, 4 μL 5 M sodium chloride (final concentration of 1 M NaCl) and 4 μL distilled H2O. This mixture was analysed without prior annealing.
Fluorescence melting profiles were measured using a Roche LightCycler using a total reaction volume of 20 μL. Initially, the samples were denatured by heating to 95° C. at a rate of 1° C. min^−1. The samples were then maintained at 95° C. for 5 min before annealing by cooling to 25° C. at 1° C. min^−1. The samples were then held at 25° C. for a further 5 min and finally melted by heating to 95° C. at 1° C. min^−1. Annealing steps and melting steps were all recorded and changes in fluorescence were measured at 520 nm.
Tm values were obtained from the first derivates of the melting profiles using the Roche LightCycler software.

PC3 (prostate) cell line = assay: MTT cytotoxicity assay, PC3; type: cell-based; settings: read-out: Cytotoxicity PC3 (nM, 72 hour)
Method: (§1) Tumor cell lines were maintained in RPMI1640 medium supplemented with 10% heat-inactivated fetal bovine serum, 2 mM L-glutamine and 1 mM sodium pyruvate. 1800 cells per well were seeded in a volume of 180 μl in a 96-well flat bottom polystyrene plate. The cells were allowed to adhere overnight at 37° C. in a CO2 incubator. Ligands were initially formulated in DMSO, and stocks stored at −80° C. They were then further formulated at lox concentration in RPMI1640 medium. 20 ul of diluted samples were added into each treatment well. On each plate, blank wells with no cells, and untreated wells containing cells, were included. Plates were then cultured at 37° C. in a CO2 incubator for 72 hrs. Cytotoxicity was evaluated using a tetrazolium salt-based assay, the MTT assay. After 72 hours, the supernatant was removed from each well and 200 μl of a sterile filtered 500 μg/ml MTT solution in water added to each well. The plates were then incubated at 37° C. in a CO2 incubator for 4 hrs. The supernatant was then removed and the formazan crystals formed solubilized by adding 150 μl of DMSO to each well. The plate was then read on a plate reader at 540 nm, and percentage cell survival calculated as follows: ((mean absorbance treated wells at concentration x−mean absorbance blank wells)[…](mean absorbance untreated wells at concentration x−mean absorbance blank wells))×100. Data were plotted as concentration in nM vs. % cell survival in Microsoft Excel, and IC50 values (concentration where cell survival is reduced by a half) were determined from the graph.

[2] = tested on: FaDu (head and neck cancer) cell line; assay: MTT cytotoxicity assay, FaDu; type: cell-based; settings: Homo sapiens, read-out: Cytotoxicity FaDu (nM, 72 hour)
Method: as §1

[3] = tested on: LIM1215 cell line (gastric); assay: MTT cytotoxicity assay, LIM1215; type: cell-based; settings: MTT assay, 72 hour incubation, read-out: Cytotoxicity LIM1215 (72 hours)
Method: as §1

SW48 cell line (gastric) = assay: MTT cytotoxicity assay, SW48; type: cell-based; settings: MTT assay, 72 hour incubation
Method: as §1

[4] = tested on: SW620 cell line (gastric); assay: MTT cytotoxicity assay, SW620; type: cell-based; settings: MTT assay, 72 hour incubation, read-out: Cytotoxicity SW620 (72 hours)
Method: as §1

[5] = Homo sapiens, SW48, read-out: Cytotoxicity SW48 (72 hrs)

COc1cc2c(cc1OCCCC(=O)N1C[C@@H](CCl)c3c1cc(OC(=O)N1CCN(C)CC1)c1ccccc31)NC(=O)[C@@H]1CCCCN1C2=O [Compound 150, (S)-1-(Chloromethyl)-3-(4-(((S)-2-methoxy-6,12-dioxo-5,6,6a,7,8,9,10,12-octahydrobenzo[e]pyrido[1,2-a][1,4]diazepin-3-yl)oxy)butanoyl)-2,3-dihydro-1H-benzo[e]indol-5-yl 4-methylpiperazine-1-carboxylate]
effect on melting temperature / DNA stabilisation [1]: negligible DNA stabilisation; also recorded: do not increase

COc1cc2c(cc1OCCCCCC(=O)N1C[C@@H](CCl)c3c1cc(O)c1ccccc31)N=C[C@@H]1CCCCN1C2=O [Compound 24, (S)-3-((6-((S)-1-(Chloromethyl)-5-hydroxy-1,2-dihydro-3H-benzo[e]indol-3-yl)-6-oxohexyl)oxy)-2-methoxy-7,8,9,10-tetrahydrobenzo-[e]pyrido[1,2-a][1,4]diazepin-12(6aH)-one]
IC50 (PC3 (prostate) cell line; MTT assay, 72 hour incubation): 0.12 nM
IC50 ([2]; MTT assay, 72 hour incubation): 1.83 nM

CC(C)(C)OC(=O)N1C[C@@H](CCl)c2c1cc(O)c1ccccc21 [Compound 10, tert-Butyl (S)-1-(chloromethyl)-5-hydroxy-1,2-dihydro-3H-benzo[e]indole-3-carboxylate]
IC50 ([3]; LIM1215): 1270 nM
IC50 (SW48 cell line (gastric); [5]): 2920 nM
IC50 ([4]; Homo sapiens, SW-620): 2000 nM

COc1cc2c(cc1OCc1cccc(CC(=O)N3C[C@@H](C)c4c3cc(O)c3ccccc43)c1)N=C[C@@H]1CCCCN1C2=O [Compound 145, (S)-3-((3-(2-((S)-5-Hydroxy-1-methyl-1,2-dihydro-3H-benzo[e]indol-3-yl)-2-oxoethyl)benzyl)oxy)-2-methoxy-7,8,9,10-tetrahydrobenzo[e]pyrido[1,2-a][1,4]diazepin-12(6aH)-one]
IC50 ([3]; LIM1215): 137 nM
IC50 (SW48 cell line (gastric); [5]): 32.1 nM
IC50 ([4]; Homo sapiens, SW-620): 350 nM

COc1cc2c(cc1OCc1c(C(=O)N3C[C@@H](CCl)c4c3cc(O)c3ccccc43)sc3ccccc13)N=C[C@@H]1CCCCN1C2=O [Compound 91, (S)-3-((2-((S)-1-(Chloromethyl)-5-hydroxy-2,3-dihydro-1H-benzo[e]indole-3-carbonyl)benzo[b]thiophen-3-yl)methoxy)-2-methoxy-7,8,9,10-tetrahydrobenzo[e]pyrido[1,2-a][1,4]diazepin-12(6aH)-one]
IC50 ([3]; LIM1215): 2210 nM
IC50 (SW48 cell line (gastric); [5]): 2320 nM
IC50 ([4]; Homo sapiens, SW-620): 2610 nM

COc1cc2c(cc1OCCCC(=O)N1C[C@@H](CCl)c3c1cc(O)c1ccccc31)NC(=O)[C@@H]1CCCCN1C2=O [Compound 149, (S)-3-(4-((S)-1-(Chloromethyl)-5-hydroxy-1,2-dihydro-3H-benzo[e]indol-3-yl)-4-oxobutoxy)-2-methoxy-7,8,9,10-tetrahydrobenzo[e]-pyrido[1,2-a][1,4]diazepine-6,12(5H,6aH)-dione]
effect on melting temperature / DNA stabilisation [1]: limited increase

COc1cc2c(cc1OCCCC(=O)N1C[C@@H](CCl)c3c1cc(OC(=O)N1CCN(C)CC1)c1ccccc31)N=C[C@@H]1CCCCN1C2=O [Compound 55, (S)-1-(Chloromethyl)-3-(4-(((S)-2-methoxy-12-oxo-6a,7,8,9,10, 12-hexahydrobenzo[e]pyrido[1,2-a][1,4]diazepin-3-yl)oxy)butanoyl)-2,3-dihydro-1H-benzo[e]indol-5-yl 4-methylpiperazine-1-carboxylate]
IC50 (PC3 (prostate) cell line; 72 h): 0.02 nM
IC50 ([2]; 72 h): 1.5 nM

COc1cc2c(cc1OCc1cccc(CC(=O)N3C[C@@H](CCl)c4c3cc(O)c3ccccc43)c1)N=C[C@@H]1Cc3ccccc3CN1C2=O [Compound 108, (S)-3-((3-(2-((S)-1-(Chloromethyl)-5-hydroxy-1,2-dihydro-3H-benzo[e]indol-3-yl)-2-oxoethyl)benzyl)oxy)-2-methoxy-7,12-dihydrobenzo[5,6][1,4]diazepino[1,2-b]isoquinolin-14(6aH)-one]
IC50 ([3]; LIM1215): 0.78 nM
IC50 (SW48 cell line (gastric); Homo sapiens, SW48, read-out: IC50 value in SW48): 0.004 nM
IC50 ([4]; Homo sapiens, SW-620): 0.045 nM

COc1cc2c(cc1OCCCC(=O)N1C[C@@H](C)c3c1cc(O)c1ccccc31)N=C[C@@H]1CCCCN1C2=O [Compound 152, (S)-3-(4-((S)—S-Hydroxy-1-methyl-1,2-dihydro-3H-benzo[e]indol-3-yl)-4-oxobutoxy)-2-methoxy-7,8,9,10-tetrahydrobenzo[e]pyrido[1,2-a][1,4]diazepin-12(6aH)-one]
effect on melting temperature / DNA stabilisation [1]: limited increase
ΔTm compared to the active G-A cross-linker 42 ([1]; three sequences of FIG. 17): large decrease in the ΔTm value

COc1cc2c(cc1OCc1cccc(CC(=O)N3C[C@@H](CCl)c4c3cc(O)c3ccccc43)c1)NC(=O)[C@@H]1CCCCN1C2=O [Compound 139, (S)-3-((3-(2-((S)-1-(Chloromethyl)-5-hydroxy-1,2-dihydro-3H-benzo[e]indol-3-yl)-2-oxoethyl)benzyl)oxy)-2-methoxy-7,8,9,10-tetrahydrobenzo[e]pyrido[1,2-a][1,4]diazepine-6,12(5H,6aH)-dione]
IC50 ([3]; LIM1215): 12 nM
IC50 (SW48 cell line (gastric); [5]): 0.95 nM
IC50 ([4]; Homo sapiens, SW-620): 13.5 nM

COc1cc2c(cc1OCCCC(=O)N1C[C@@H](CCl)c3c1cc(OC(=O)N1CCN(C)CC1)c1ccccc31)N=C[C@@H]1Cc3ccccc3CN1C2=O [Compound 61, (S)-1-(Chloromethyl)-3-(4-(((S)-2-methoxy-14-oxo-6a,7,12,14-tetrahydrobenzo[5,6][1,4]diazepino[1,2-b]isoquinolin-3-yl)oxy)butanoyl)-2,3-dihydro-1H-benzo[e]indol-5-yl 4-methylpiperazine-1-carboxylate]
IC50 (PC3 (prostate) cell line; 72 h): > 10 nM
IC50 ([2]; 72 h): > 10 nM

CC(C)(C)OC(=O)N1CC2CC23C1=CC(=O)c1ccccc13 [Compound 83, tert-Butyl (8bR,9aS)-4-oxo-9,9a-dihydro-1H-benzo[e]cyclopropa[c]indole-2(4H)-carboxylate]
IC50 [3]: 2890 nM
IC50 (SW48 cell line (gastric); read-out: Cytotoxicity SW48 (72 hrs)): 4390 nM
IC50 [4]: 3510 nM
effect on melting temperature / DNA stabilisation [1]: do not increase
degree of DNA stabilisation ([1]; middle sequence and bottom sequence in FIG. 17 (both AT-rich)): very small degree of stabilisation
